Laboratory results: patent publication US12509431B2, “1,4-dihydroquinazolinone compounds and uses thereof” (Edgewise Therapeutics, Inc., priority 2022, dated 2025)

Tests used:
Type in all cases: biochemical
Details in all cases: Table 8
Porcine Atria myofibrils = experiment: Myofibril ATPase assay (PK/LDH NADH-coupled), atria myofibrils
Description: (§1) Myofibril ATPase Assay Procedure: BSA, ATP, NADH, PEP, and DTT solutions were thawed at room temperature, then transferred to ice. Pellet-frozen myofibrils were transferred with approximately twice the required volume into a sufficiently large tube and capped. Myofibrils were thawed by rolling in a water bath for approximately 15 min at room temperature and cooled on ice. Buffers A and B were prepared by adjusting volumes as necessary for required number of wells and stored on ice. 0.5 μL of the compounds to be assayed were added into wells. 25 μL of Buffer A was dispensed into the wells, followed by 25 μL of Buffer B. The wells were measured for absorbance at 340 nm, using a kinetic protocol in which the wells are read every 1.5-2 min for 75 min. Assay data analysis was performed using a python script that filtered the raw data to retain those points falling between a starting and ending time and between a maximum and minimum absorbance, then used the filtered time-domain 340 nm absorbance data in each well to calculate a slope via linear regression analysis in units of mAU/min. Compound slopes were normalized between 100% and 0% activity, where 100% represented the slope of wells containing only compound vehicle, and fit to a 4-parameter logistic model. In addition to the fit parameters, the EC25% is calculated, relative to the 100% normalized value. In the case of inhibitors, EC50% is also calculated, if available. Fit parameters, calculated effective concentrations, filtered raw data, and calculated slopes were exported, in addition to compound-specific graphs of normalized ATPase activity versus concentration in μM.

[1] = test system: Rabbit Skeletal myofibrils (rabbit psoas muscle); experiment: Myofibril ATPase assay (PK/LDH NADH-coupled), skeletal myofibrils
Description: (§2) Myofibril ATPase assays are known in the art to be useful in evaluating small molecules for the treatment of HCM and other cardiac indications. Myosin ATPase activity is assessed by using a coupled reaction system, in which ADP generated by the myosin ATPase function is coupled to the disappearance of NADH through the pyruvate kinase/lactate dehydrogenase (PK-LDH) system. ATPase activity produces ADP, which is used as a substrate for PK to produce pyruvate and regenerate ATP. The pyruvate is then used as a substrate by LDH to oxidize NADH to NAD+. The rate of the reaction is monitored through the time-dependent disappearance of NADH using absorbance at 340 nm, which, when the couple system is in stoichiometric excess, is directly correlated to the ATPase activity of the myosin. Inhibition of ATPase activity by the assayed compounds is indicated by a reduced rate of NADH loss, relative to vehicle-treated controls, over the experimental time window. Rabbit Skeletal and Porcine Ventricle are the primary sources of myofibril material.
(§3) Materials: The following stock solutions and reagents were used in the Myofibril ATPase Assay:
(§4) Stock Solutions of pCa buffer. Combine PIPES, CaCl2), and EGTA solutions with water. Adjust pH to 7.0 and bring final volume to 100 mL.
(§5) Buffer A & Buffer B. Prepare buffers A and B according to the table below.
as §1
Skeletal Myofibril Isolation:
Myofibrils from various animals and tissue types were acquired from a variety of sources: rabbit psoas muscle was purchased from Pel-Freez Biologicals (Rogers, AR) and porcine cardiac muscle was purchased from Exemplar Genetics. All myofibrils were prepared using a method based upon those described in Herrmann et al. (1993) and summarized here. Minced tissue was homogenized for 50 sec with a Polytron homogenizer into 10 volumes (relative to weight in grams) of Isolation Buffer A (50 mM Tris, pH 8.0, 0.1 M potassium acetate, 5 mM KCl, 2 mM DTT, 5 mM EDTA, 0.5% v/v Triton X-100) supplemented with 0.1 mM PMSF, 10 μM leupeptin, 5 μM pepstatin, and 0.5 mM sodium azide. The myofibrils were recovered by centrifugation (Beckman Allegra 6R, 1200 g, 10 min) and resuspended in 10 volumes Isolation Buffer B (Buffer A above without protease inhibitors or sodium azide). The myofibrils were further homogenized as before and recovered by centrifugation. […]

[2] = molecular target: T1, Porcine Ventricle myofibrils (left ventricle of Yucatan minipigs) (Sus scrofa, UniProt P79293); experiment: Myofibril ATPase assay (PK/LDH NADH-coupled), ventricle myofibrils
T1 construct: Myofibrils from porcine cardiac muscle was isolated from the left ventricle of Yucatan minipigs; tissue Exemplar Genetics; host or cells: left ventricle of Yucatan minipigs
T1 sequence (P79293 whole entry): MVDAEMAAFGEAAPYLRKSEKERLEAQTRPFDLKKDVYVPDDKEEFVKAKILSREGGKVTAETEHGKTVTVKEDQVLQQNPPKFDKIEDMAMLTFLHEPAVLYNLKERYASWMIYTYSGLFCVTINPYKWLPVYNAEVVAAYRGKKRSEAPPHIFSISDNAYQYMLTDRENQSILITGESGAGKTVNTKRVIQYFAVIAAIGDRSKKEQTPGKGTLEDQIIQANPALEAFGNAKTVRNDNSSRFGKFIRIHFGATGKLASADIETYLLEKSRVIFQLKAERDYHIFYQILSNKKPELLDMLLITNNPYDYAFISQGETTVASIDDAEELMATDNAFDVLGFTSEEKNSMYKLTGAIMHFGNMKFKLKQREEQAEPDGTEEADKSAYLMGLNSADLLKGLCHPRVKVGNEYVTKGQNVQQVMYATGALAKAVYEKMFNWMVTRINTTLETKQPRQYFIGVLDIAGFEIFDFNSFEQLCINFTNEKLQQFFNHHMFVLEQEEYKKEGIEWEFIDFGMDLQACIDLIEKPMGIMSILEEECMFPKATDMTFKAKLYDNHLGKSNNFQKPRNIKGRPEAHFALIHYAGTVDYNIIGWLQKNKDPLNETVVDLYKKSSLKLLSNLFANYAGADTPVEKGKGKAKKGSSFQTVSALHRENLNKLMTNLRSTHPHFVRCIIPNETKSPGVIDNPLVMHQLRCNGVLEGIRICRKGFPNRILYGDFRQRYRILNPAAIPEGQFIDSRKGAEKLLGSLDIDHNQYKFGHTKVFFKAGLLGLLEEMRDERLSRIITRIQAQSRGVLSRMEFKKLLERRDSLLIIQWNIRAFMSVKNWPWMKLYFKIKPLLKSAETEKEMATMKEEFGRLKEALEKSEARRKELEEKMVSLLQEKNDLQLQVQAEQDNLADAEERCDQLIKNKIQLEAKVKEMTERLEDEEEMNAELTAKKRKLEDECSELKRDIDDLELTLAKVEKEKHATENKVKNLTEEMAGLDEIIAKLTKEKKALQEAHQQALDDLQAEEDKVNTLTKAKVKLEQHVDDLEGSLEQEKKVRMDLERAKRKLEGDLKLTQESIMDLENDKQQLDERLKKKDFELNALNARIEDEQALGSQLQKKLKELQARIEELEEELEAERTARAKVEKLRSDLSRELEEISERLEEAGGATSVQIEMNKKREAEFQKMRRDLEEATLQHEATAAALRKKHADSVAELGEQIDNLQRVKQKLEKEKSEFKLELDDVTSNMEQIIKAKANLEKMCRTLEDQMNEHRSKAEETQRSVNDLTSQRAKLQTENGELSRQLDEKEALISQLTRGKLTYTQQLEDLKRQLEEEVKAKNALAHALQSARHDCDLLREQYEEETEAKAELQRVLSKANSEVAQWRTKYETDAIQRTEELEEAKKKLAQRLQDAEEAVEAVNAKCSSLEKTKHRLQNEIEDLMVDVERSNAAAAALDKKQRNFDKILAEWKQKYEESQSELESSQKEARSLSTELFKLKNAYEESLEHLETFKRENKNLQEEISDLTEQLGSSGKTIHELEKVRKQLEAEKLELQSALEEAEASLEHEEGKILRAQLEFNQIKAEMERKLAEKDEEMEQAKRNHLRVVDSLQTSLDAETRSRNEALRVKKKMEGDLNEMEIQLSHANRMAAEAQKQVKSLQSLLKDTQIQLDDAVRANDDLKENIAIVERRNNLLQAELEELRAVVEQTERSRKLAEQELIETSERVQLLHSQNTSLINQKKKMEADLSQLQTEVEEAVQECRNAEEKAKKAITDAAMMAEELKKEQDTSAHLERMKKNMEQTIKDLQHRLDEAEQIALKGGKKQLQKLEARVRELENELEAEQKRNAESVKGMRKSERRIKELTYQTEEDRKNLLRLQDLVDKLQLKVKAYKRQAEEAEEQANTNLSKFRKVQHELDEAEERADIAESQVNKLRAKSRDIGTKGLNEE
Description: as §2, §3, §4, §5, §1
Cardiac Myofibril Isolation:
Myofibrils from porcine cardiac muscle was isolated from the left ventricle of Yucatan minipigs. Myofibrils were prepared using a method based upon those described in Herrmann et al. (1993) and summarized here. Minced tissue was homogenized for 50 sec with a Polytron homogenizer into 10 volumes (relative to weight in grams) of Isolation Buffer A (75 mM KCl, 10 mM Imidazole, 2 mM MgCl2, 2 mM EGTA, 1 mM NaN3, 1% v/v Triton X-100) supplemented with 4 mM Phosphocreatine, 1 mM ATP, 50 mM BDM, 1 mM DTT, 1 mM Benzamide HCl, 0.1 mM PMSF, 10 μM leupeptin, 5 μM pepstatin, and 10 mM EDTA. The myofibrils were recovered by centrifugation (Beckman Allegra 6R, 1200 g, 15 min) and resuspended in 10 volumes Isolation Buffer B (Buffer A above without supplemental reagents). The myofibrils were further homogenized described above and recovered by centrifugation for 7 mins. Cellular membranes and debris were removed by 3 washes in Isolation Buffer B, centrifuging each as before. […]

Porcine Atria IC25 (Porcine Atria myofibrils) [µM]	Rabbit Psoas IC25 [1] [µM]	Porcine Ventricle IC25 [2] [µM]	SMILES
0.21	0.02107	1.558	C[C@H](NC(=O)CN1C(=O)Nc2ccc(F)c(F)c2[C@@H]1C)c1ccc(F)cc1F (relative stereo) [Compound B231, 2-[(4S*)-5,6-Difluoro-4-methyl-2-oxo-1,4-dihydroquinazolin-3-yl]-N-[(1S)-1-(2,4-difluorophenyl)ethyl]acetamide]
0.04	0.0328	0.3963	C[C@H](NC(=O)CN1C(=O)Nc2ccc(F)c(F)c2[C@H]1C)c1ccc(F)cc1F (relative stereo) [Compound B232, 2-[(4R*)-5,6-Difluoro-4-methyl-2-oxo-1,4-dihydroquinazolin-3-yl]-N-[(1S)-1-(2,4-difluorophenyl)ethyl]acetamide]
0.04	0.0124	0.0347	Cc1cc(C#N)nnc1C(C)NC(=O)CN1Cc2c(ccc(F)c2F)NC1=O (single isomer, unassigned) [Compound B23]
0.70	4.823	2.494	Cc1ccnnc1C(C)NC(=O)CN1Cc2c(ccc(F)c2F)NC1=O (single isomer, unassigned) [Compound B25]
0.58	1.252	0.948	Cc1cc([C@H](C)NC(=O)CN2Cc3c(ccc(F)c3F)NC2=O)ncc1C#N (single isomer, unassigned) [Compound B35]
100.00	100	96.66	Cc1cnncc1C(C)NC(=O)CN1Cc2c(ccc(F)c2F)NC1=O (single isomer, unassigned) [Compound B47]
0.09	100	7.534	CC(NC(=O)CN1Cc2c(ccc(F)c2F)NC1=O)c1cc(C#N)c(F)cn1 (single isomer, unassigned) [Compound B53]
43.94	7.017	9.364	CC(C)C[C@H](C(=O)N[C@H](C)c1ccc(F)cc1F)N1Cc2cc(F)ccc2NC1=O (single isomer, unassigned) [Compound B67]
0.61	3.174	0.2987	Cc1cc(C(C)NC(=O)CN2Cc3c(ccc(F)c3F)NC2=O)ncc1F (single isomer, unassigned) [Compound B69]
1.24	100	100	CC(NC(=O)CN1Cc2c(ccc(F)c2F)NC1=O)c1cc2c(cn1)OCCN2C (single isomer, unassigned) [Compound B74]
0.39	5.359	0.3465	O=C(CN1Cc2c(ccc(F)c2F)NC1=O)NC1COCc2cc(F)ccc21 (single isomer, unassigned) [Compound B76]
0.19	1.11	2.048	O=C(CN1Cc2c(ccc(F)c2F)NC1=O)NC1COc2ccc(F)cc2C1 (single isomer, unassigned) [Compound B87]
2.45	2.863	79.13	CC1c2ccccc2NC(=O)N1CC(=O)N[C@@H](CO)c1ccc(F)cc1F (single isomer, unassigned) [Compound B200, N-[(1R)-1-(2,4-difluorophenyl)-2-hydroxyethyl]-2-[(4R*)-4-methyl-2-oxo-1,4-dihydroquinazolin-3-yl]acetamide]
100.00	100.00	100.00	O=C(CN1Cc2c(ccc(F)c2F)NC1=O)N[C@H]1CCc2cc(F)cnc21 (single isomer, unassigned) [Compound B351]
0.61	4.45	2.36	Cc1nc([C@@H](C)NC(=O)CN2Cc3c(ccc(F)c3F)NC2=O)ncc1C#N (single isomer, unassigned) [Compound B352]
0.09	0.0201	0.0599	Cc1nc(C#N)ncc1[C@@H](C)NC(=O)CN1Cc2c(ccc(F)c2F)NC1=O [Compound B1]
0.96	5.739	7.734	Cc1nc(C#N)ncc1[C@H](C)NC(=O)CN1Cc2c(ccc(F)c2F)NC1=O [Compound B2]
34.81	100	52.51	Cc1nsc([C@H](C)NC(=O)CN2Cc3c(ccc(F)c3F)NC2=O)n1 [Compound B3]
0.07	0.1318	0.1161	N#Cc1cnc2c(c1)COC[C@H]2NC(=O)CN1Cc2c(ccc(F)c2F)NC1=O [Compound B4]
100.00	4.565	100	N#Cc1cnc2c(c1)COC[C@@H]2NC(=O)CN1Cc2c(ccc(F)c2F)NC1=O [Compound B5]
0.07	0.1232	0.1483	O=C(CN1Cc2c(ccc(F)c2F)NC1=O)N[C@@H]1COc2cc(F)cnc21 [Compound B6]
0.45	29.14	2.786	O=C(CN1Cc2c(ccc(F)c2F)NC1=O)N[C@H]1COc2cc(F)cnc21 [Compound B7]
0.43	1.018	0.6039	Cc1cc(C#N)cnc1[C@@H](C)NC(=O)CN1Cc2c(ccc(F)c2F)NC1=O [Compound B8]
0.04	0.0224	0.0379	Cc1cc(C#N)cnc1[C@H](C)NC(=O)CN1Cc2c(ccc(F)c2F)NC1=O [Compound B9]
100.00	29.08	8.204	C[C@@H](NC(=O)CN1Cc2c(F)cc(C#N)cc2NC1=O)c1ccc(C#N)cc1F [Compound B10]
100.00	49.64	100	C[C@H](NC(=O)CN1Cc2c(F)cc(C#N)cc2NC1=O)c1ccc(C#N)cc1F [Compound B11, N-[(1S)-1-(4-Cyano-2-fluorophenyl)ethyl]-2-(7-cyano-5-fluoro-2-oxo-1,4-dihydroquinazolin-3-yl)acetamide]
	100	100	COc1cnc([C@H](C)NC(=O)CN2Cc3cc(F)ccc3NC2=O)c(F)c1 [Compound B179]
